From US7601739B2, “Compounds having antiestrogenic and tissue selective estrogenic properties, and compounds with anti-androgenic properties for treatment of prostate cancer and androgen receptor dependent diseases” (Virgina Commonwealth University, priority 2006, dated 2009)

Experiments:
MCF-7 cells = test: hERα positive breast cancer cell proliferation assay; type: cell-based, human; details: for activity at 5 µM: Homo sapiens, MCF7, 72 h, MCF-7 cells, DMSO = 1, read-out: Relative Cancer Cell Proliferation Effects at 5 μM
Procedure: (§1) MCF-7 or MDA-MB-231 cells were inoculated into 12-well culture plates at 10000 cells in 2 ml maintained medium per well. Cells were allowed to attach to the bottom for 24 hrs incubation, then the seeding medium was removed and replaced by the experimental medium (phenol red-free DMEM supplemented with 5% charcoal-stripped fetal bovine serum and Penicillin (100 unit/ml)/Streptomycin ([…])). After 24 hr incubation, the test molecules dissolved in DMSO were added in the wells. […] The culture was continued for 3 days and the medium and tested compounds were replaced every two days. The final cell numbers were estimated with CellTiter proliferation assay kit (Promega, Madison, Wis.) by measuring the absorbance at 570 nm, which is directly proportional to the number of living cells in the culture.
MCF-7 cell line was used to perform this assay and the description of this assay as mentioned above. […] DMSO was used as reference.

hER = test: Fluorescence-based competitive binding assay for hER (displacement of fluormone ES2); parameters: species or system human; details: RBA = IC50 of tamoxifen/IC50 of test molecule; tamoxifen set at 1
Procedure: The estrogen receptor competitor assay kits (Panvera, Madison, Wis.) were used to determine the ability of test molecules to displace the fluormone, ES2, from hER -ES2 or hER -ES2 complex. Serial dilutions of each test molecule were prepared in methanol or DMSO. The recombinant hER or hER (7 nM) was preincubated with ES2 (1 nM) in screening buffer. After the preincubation, the test molecules and ER-ES2 complex solution were added into the 96-well microplate to produce a final volume of 100 μl per well. The reaction was incubated at room temperature for 1 hr and the polarization values were measured by using fluorescence microplate reader, Polarion (Tecan, Research Triangle Park, N.C.) with excitation wavelength 495 nm and emission wavelength 535 nm. The polarization value versus test molecule concentration curves was analyzed by graphfit software to generate IC50 values.
In this assay, recombinant hER and the commercial synthetic estrogen, ES2 containing fluorescence polarization property, are used. This assay is a homogenous assay. When the assay solution only contains ES2, the solution exerts weak fluorescence polarization property due to the quick rotation of free ES2 molecule. […] Addition of the antiestrogen to the ES2/hER displaces ES2 from hER and results in the whole solution exerting less fluorescence polarization property than the solution without antiestrogen.

hERα [1] = biological target: T1, hERα (Homo sapiens, UniProt P03372); test: Transient transfection reporter assay for hERα in MCF-7 cells; type: cell-based; parameters: Relative Estrogenic Activity: dose or concentration left out as unconfirmed; details: for Relative Estrogenic Activity: MCF-7 cells transfected with hERα, DMSO set as 1; for estrogenic effect: compared with DMSO and tamoxifen; for Relative Antiestrogenic Activity at 2.5 μM: with 1 nM estradiol, 1 nM E2 used as reference (1)
T1 construct: mammalian expression plasmid containing full length human ER cDNA, pCMV-hER; expressed in transfected cells; host or cells: MCF-7 human breast cancer cells
T1 sequence (P03372 1-595): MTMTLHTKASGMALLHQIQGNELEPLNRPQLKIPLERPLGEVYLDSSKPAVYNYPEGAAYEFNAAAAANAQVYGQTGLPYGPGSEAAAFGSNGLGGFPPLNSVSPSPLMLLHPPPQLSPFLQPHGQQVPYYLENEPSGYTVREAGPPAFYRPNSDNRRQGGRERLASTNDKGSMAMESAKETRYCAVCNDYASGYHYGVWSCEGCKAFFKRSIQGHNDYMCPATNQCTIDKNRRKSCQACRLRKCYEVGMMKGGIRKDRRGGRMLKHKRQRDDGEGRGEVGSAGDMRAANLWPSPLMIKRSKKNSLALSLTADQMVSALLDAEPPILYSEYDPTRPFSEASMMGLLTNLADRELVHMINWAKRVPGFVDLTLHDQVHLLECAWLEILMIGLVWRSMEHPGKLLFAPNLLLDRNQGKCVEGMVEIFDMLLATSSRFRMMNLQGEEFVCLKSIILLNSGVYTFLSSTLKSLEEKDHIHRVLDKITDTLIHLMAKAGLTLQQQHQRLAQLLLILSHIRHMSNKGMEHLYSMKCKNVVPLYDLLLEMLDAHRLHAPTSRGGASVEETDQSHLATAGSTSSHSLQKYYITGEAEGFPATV
Procedure: For the transient transfection reporter assays, the cells were plated in triplicate in 12-well plates at a density of 300000 cells/well in the phenol red-free DMEM (GIBCO/BRL, Grand Island, N.Y.) supplemented with 10% charcoal-stripped fetal bovine serum (Hyclone, Logan, Utah), Penicillin (100 unit/ml)/Streptomycin ([…]), 2 mML-glutamine and 1 mM sodium Pyruvate. 24 hrs later, the cells were transfected with three plasmids by using Superfect transfection kit (Qiagen, Valencia, Calif.). For the detection of hER activity, cells were transfected with 2 g hER expression plasmid (pCMV-ER ), 6 g luciferase reporter plasmid containing estrogen receptor response element (PGL-TATA-Luc), and 600 ng normalization control, β-galactosidase reporter plasmid (pCMV ). For the detection of hER activity, cells were transfected with 3 ug hER expression plasmid (pcDNA3.1-hER), 6 g luciferase reporter plasmid containing estrogen receptor response element (PGL-TATA-Luc), and 600 ng pCMV. For determining the influence of ER's major coactivator in breast, AIB 1, 2 g pcDNA3.1-AIB1 was added into the transfection plasmid solution mentioned previously.
The transfected cells were rinsed with PBS and treated with various concentrations of test molecules and one […] (vehicle, DMSO or methanol) in phenol red-free culture medium. After incubation for further 24 hrs, the cells were washed with PBS and lysed with lysis buffer (Pierce, Rockford, Ill.). The lysate was used to determine the luciferase activity for ER's activity and the β-galactosidase activity for the normalization of transfection efficiency.
For the luciferase activity assay, 20 μl of lysate and 100 μl luciferase assay buffer (Promega, Madison, Wis.) were added into a well of 96-well plate. The luminescence was detected by using luminescence microplate reader, LumiCount (Packard, Boston, Mass.). For the β-galactosidase activity assay, […] β-galactosidase assay buffer (Clontech, Palo Alto, Calif.) were added into a well of 96-well plate. The β-galactosidase activity was measured as luminescence strength by using luminescence microplate reader, LumiCount (Packard, Boston, Mass.). The normalized reporter activity was calculated by the luciferase activity divided by that of β-galactosidase.
The transient transfection reporter assay was used to determine the estrogenic or antiestrogenic activity of tested compounds in employed human breast cancer cells, MCF-7 cells that are cotransfected with hERα expression and reporter plasmids. […] […] The estrogenic (antiestrogenic) activity was determined by dividing the luciferase activity by the β-galactosidase activity. To determine the influence of estrogen receptor's major coactivator in breast cancer, AIB1, for the compounds' estrogenic activity, the expression vector of AIB1 was additionally cotransfected with the plasmids mentioned above.

MDA-MB-231 cells = test: hER negative breast cancer cell proliferation assay; type: cell-based, human; details: hER negative cell line
Procedure: as §1
In this assay, MDA-MB-231 breast cancer cell line, a hER negative cell line, was used. DMSO was used as reference.

hERα [2] = biological target: T2, hERα (Homo sapiens, UniProt P03372); test: Yeast two-hybrid and filter lift assay of hERα dimerization; type: cell-based
T2 construct: the full length hERα was inserted into pGAD-GAL4 and pGBD-GAL4 vectors; expressed in transfected cells; host or cells: S. cerevisiae Y190 transformed with pGBT-hER (pGBKT7) and pGAD-hER (pGADT7)
T2 sequence (P03372 1-595) 1: T1 sequence (P03372 1-595)
T2 sequence (P03372 1-595) 2: T1 sequence (P03372 1-595)
Procedure: The transformed yeasts with yeast two-hybrid vectors were cultured in synthetic medium lacking trytophan, and leucine. […] After that, the membranes were soaked in 0.4 ml Z-buffer/Xgal (60 mM Na2HPO4, 40 mM NaH2PO410 mM KCl, 1 mM MgSO4, 0.1% SDS, 50 mM -mercaptoethanol, 20 mM Xgal). The pictures of the results were taken within 2 and 3 hours after the -galactosidase assay was processed.
Dimerization of estrogen receptor plays an essential role in regulating estrogen receptor's functions including DNA binding, transactivation, and coactivator recruitment. In this study, yeast two hybrid and filter lift assays were used to determine the ability of compounds 2 and 6 to interrupt the dimerization of hERα. For setting up yeast two hybrid assay, the full length hERα was inserted into pGAD-GAL4 and pGBD-GAL4 vectors. In pGBD-GAL4, hERα was fused to the GAL4 DNA binding domain through its N terminus. In pGAD-GA14, hERα was fused to the GAL4 activation domain through its N terminus. When the dimerization of hERα occurs mainly through its C terminus, the GAL4 DNA binding domain binds to the repeated GAL4 response element located in front of the β-gal reporter gene and the whole complex, GAL4-BD/hERα/hERα/GAL4-AD, turns on the synthesis of the product of β-gal reporter gene. […] Filter lift assay in which X-gal was used, was employed to qualitatively determine the activity of β-galactosidase.

| SMILES | Relative Binding Affinity (hER) | Relative Estrogenic Activity (hERα [1]) | estrogenic effect (hERα [1]; MCF-7 cells, hERα) | Relative Antiestrogenic Activity at 2.5 μM (hERα [1]) | inhibitory activity against hERα dimerization in combination with estrogen (hERα [2]; combined with estrogen) | induction of hERα dimerization, compound alone (hERα [2]; tested alone) | antiestrogenic / inhibition activity (hERα [1]; against 1 nM estrogen) | activity at 5 µM (MCF-7 cells) [%] | antiestrogenic activity against various concentrations of estrogen (FIG. 4) (hERα [1]; MCF-7 cells, hERα) | proliferation effects against MDA-MB-231 cells (FIG. 6, words) (MDA-MB-231 cells) | inhibition effects against MCF-7 cell proliferation (MCF-7 cells) | inhibition of MCF-7 cell proliferation (MCF-7 cells; relative to DMSO) [%] |
| --- | --- | --- | --- | --- | --- | --- | --- | --- | --- | --- | --- | --- |
| CCCCNC(=O)CCCCCCCCCCOCC1Cc2ccccc2CN1C(=O)c1ccccc1F (stereo not drawn) [Compound 1] | 0.225 | 1.02 | do not exert any estrogenic effects | 1.17 |  |  |  | 106 | can antagonize estrogen's action in a dose dependent manner |  |  |  |
| CCCCNC(=O)CCCCCCCCCCOCC1Cc2ccccc2CN1C(=O)c1ccc(OC)cc1 (stereo not drawn) [Compound 5] | 0.14 | 1.06 | do not exert any estrogenic effects | 1.64 |  |  |  | 98 |  |  |  |  |
| CCCCCCCCNC(=O)CCCCCCCCCCOCC1Cc2ccccc2CN1C(=O)c1cccc(F)c1 (stereo not drawn) [Compound 11, 11-[2-(3-Fluoro-benzoyl)-1,2,3,4-tetrahydro-isoquinolin-3-ylmethoxy]-undecanoic acid octylamide] | 0.177 | 0.83 | do not exert any estrogenic effects | 1.11 |  |  |  | 100 |  |  |  |  |
| CCCCNC(=O)CCCCCCCCCCOCC1Cc2ccccc2CN1C(=O)Cc1cccc(F)c1 (stereo not drawn) [Compound 12, 11-{2-[2-(3-Fluoro-phenyl)-acetyl]-1,2,3,4-tetrahydro-isoquinolin-3-ylmethoxy]-undecanoic acid butylamide] | 0.267 | 1.68 |  | 1.01 |  |  |  | 120 |  |  |  |  |
| CC/C(=C(\c1ccccc1)c1ccc(OCCN(C)C)cc1)c1ccccc1 [Tamoxifen, reference compound] |  |  |  |  |  |  |  | 42 |  | moderate anti-proliferation effects |  | 58 |

Now from value to molecule, other results behind:

| Relative Binding Affinity (hER) | Relative Estrogenic Activity (hERα [1]) | estrogenic effect (hERα [1]; MCF-7 cells, hERα) | Relative Antiestrogenic Activity at 2.5 μM (hERα [1]) | inhibitory activity against hERα dimerization in combination with estrogen (hERα [2]; combined with estrogen) | induction of hERα dimerization, compound alone (hERα [2]; tested alone) | antiestrogenic / inhibition activity (hERα [1]; against 1 nM estrogen) | SMILES | activity at 5 µM (MCF-7 cells) [%] | antiestrogenic activity against various concentrations of estrogen (FIG. 4) (hERα [1]; MCF-7 cells, hERα) | proliferation effects against MDA-MB-231 cells (FIG. 6, words) (MDA-MB-231 cells) | inhibition effects against MCF-7 cell proliferation (MCF-7 cells) | inhibition of MCF-7 cell proliferation (MCF-7 cells; relative to DMSO) [%] |
| --- | --- | --- | --- | --- | --- | --- | --- | --- | --- | --- | --- | --- |
| 0.287 | 0.9 | do not exert any estrogenic effects | 0.75 | weak inhibitory activity | did not induce the dimerization of hERα |  | CCCCNC(=O)CCCCCCCCCCOCC1Cc2ccccc2CN1C(=O)c1cccc(F)c1 (stereo not drawn) [Compound 2] | 66 |  | do not inhibit or stimulate the growth | slightly lower inhibition effects than compound 6 |  |
| 0.264 | 1.09 | do not exert any estrogenic effects | 0.93 |  |  |  | CCCCNC(=O)CCCCCCCCCCOCC1Cc2ccccc2CN1C(=O)c1ccc(F)cc1 (stereo not drawn) [Compound 3] | 91 |  |  | slight inhibition effects |  |
| 0.156 | 1.32 |  | 0.75 |  |  | moderate antiestrogenic effect | CCCCNC(=O)CCCCCCCCCCOCC1Cc2ccccc2CN1C(=O)c1cccc(C)c1 (stereo not drawn) [Compound 8, 11-[2-(3-Methyl-benzoyl)-1,2,3,4tetrahydro-isoquinolin-3-ylmethoxy]-undecanoic acid butylanide] | 84 |  |  | slight inhibition effects |  |
| 0.132 | 1.72 |  | 1.34 |  |  |  | CCCCNC(=O)CCCCCCCCCCOCC1Cc2ccccc2CN1C(=O)c1ccc(C)cc1 (stereo not drawn) [Compound 9, 11-[2-(4-Methyl-benzoyl)-1,2,3,4-tetrahydro-isoquinolin-3-ylmethoxy]-undecanoic acid butylamide] | 101 |  |  |  |  |
| 0.156 | 0.68 | do not exert any estrogenic effects | 0.83 |  |  |  | CCCCNC(=O)CCCCCCCCCCOCC1Cc2ccccc2CN1C(=O)c1cccc(Cl)c1 (stereo not drawn) [Compound 10, 11-[2-(3-Chloro-benzoyl)-1,2,3,4tetrahydro-isoquinolin-3-ylmethoxy]-undecanoic acid butylamide] | 86 |  |  | slight inhibition effects |  |
